Laboratory results from US20150335021A1, “Cycloclavine and Derivatives Thereof for Controlling Invertebrate Pests” (BASF SE, priority 2012, published 2015).

Key:
[1] = test system: Diamond Back Moth (plutella xylostella); test: Diamond back moth leaf-dip test on Chinese cabbage; type: in vivo; conditions: 300 ppm, recorded 24, 72 and 120 hours after treatment, in comparison with untreated controls
Protocol: (§1) If not otherwise specified the test solutions are prepared as follow:
(§2) The active compound is dissolved at the desired concentration in a mixture of 1:1 (vol:vol) distilled water:acteon. The test solution is prepared at the day of use and in general at concentrations of […].
B.3 Diamond Back Moth (plutella xylostella)
Leaves of Chinese cabbage were dipped in test solution and air-dried. Treated leaves were placed in petri dished lined with moist filter paper. Mortality was recorded 24, 72, and 120 hours after treatment.

[2] = test system: Striped Flea Beetle (Phylotretta striolata); test: Striped flea beetle leaf-dip test on Chinese cabbage; type: in vivo; conditions: 300 ppm, 72 hours after treatment, in comparison with untreated controls
Protocol: B.10 Striped Flea Beetle (Phylotretta striolata)
The active compound is dissolved at the desired concentration in a mixture of 1:1 (vol:vol) distilled water:acetone. Add surfactant (Alkamuls® EL620) at the rate of 0.1% (vol/vol). The test solution is prepared at the day of use.
Leaves of Chinese cabbage were dipped in test solution and air-dried. Treated leaves were placed in pertri dishes lined with moist filter paper and inoculated with 20 adults. Mortality was recorded 72 hours after treatment. Feeding damage were also recorded using scale of 0-100%.

[3] = test system: Red spider Mite (Tetranychus kanzawai); test: Red spider mite test on sprayed cowpea beans; type: in vivo; conditions: 300 ppm, spray, after 72 h, in comparison with untreated controls
Protocol: B.6 Red spider Mite (Tetranychus kanzawai)
The active compound was dissolved at the desired concentration in a mixture of 1:1 (v/v) distilled water:acetone. A surfactant (Alkamuls® EL 620) was added at the rate of 0.1% (v/v).
Potted cowpea beans of 7-10 days of age were cleaned with tap water and sprayed with 5 ml of the test solution using air driven hand atomizer. The treated plants were allowed to air dry and afterwards inculated with 20 or more mites by clipping a cassava leaf section with known mite population. Treated plants were placed inside a holding room at about 25-27° C. and about 50-60% relatice humidity.
ortality by counting the live mites 72 HAT. Percent mortality was assessed after 72 h.

[4] = test system: Orchid Thrips (dichromothrips corbetti); test: Orchid thrips floral-immersion test; type: in vivo; conditions: 300 ppm, after 4 days, in comparison with untreated controls
Protocol: B.4 Orchid Thrips (dichromothrips corbetti)
Dichromothrips corbetti adults used for bioassay are obtained from a colony maintained continuously under laboratory conditions. For testing purposes, the test compound is diluted to a concentration of 300 ppm (wt compound: vol diluent) in a 1:1 mixture of acetone:water (vol:vol), plus 0.01% vol/vol Kinetic® surfactant.
Thrips potency of each compound is evaluated by using a floral-immersion technique. Plastic petri dishes are used as test arenas. All petals of individual, intact orchid flowers are dipped into treatment solution and allowed to dry. Treated flowers are placed into individual petri dishes along with 10-15 adult thrips. The petri dishes are then covered with lids. All test arenas are held under continuous light and a temperature of about 28° C. for duration of the assay. After 4 days, the numbers of live thrips are counted on each flower, and along inner walls of each petri dish. The level of thrips mortality is extrapolated from pre-treatment thrips numbers.

[5] = test system: Silverleaf Whitefly (Bemisia argentifolii); test: Silverleaf whitefly test on sprayed cotton plants; type: in vivo; conditions: 72 h, spray, 3 days after treatment, in comparison with untreated controls
Text: B.5 Silverleaf Whitefly (Bemisia argentifolii)
(§3) The active compounds were formulated in cyclohexanone as a 10,000 ppm solution supplied in tubes. The tubes were inserted into an automated electrostatic sprayer equipped with an atomizing nozzle and they served as stock solutions for which lower dilutions were made in 50% acetone:50% water (v/v). A nonionic surfactant (Kinetic( ) was included in the solution at a volume of 0.01% (v/v).
Cotton plants at the cotyledon stage (one plant per pot) were sprayed by an automated electrostatic plant sprayer equipped with an atomizing spray nozzle. The plants were dried in the sprayer fume hood and then removed from the sprayer. Each pot was placed into a plastic cup and about 10 to 12 whitefly adults (approximately 3-5 days old) were introduced. The insects were collected using an aspirator and a nontoxic Tygon® tubing connected to a barrier pipette tip. The tip, containing the collected insects, was then gently inserted into the soil containing the treated plant, allowing insects to crawl out of the tip to reach the foliage for feeding. Cups were covered with a reusable screened lid. […] Mortality was assessed 3 days after treatment, compared to untreated control plants.

[6] = test system: antibodies against lysergic acid-bovine serum albumin conjugates; conditions: antibodies raised in rabbits against lysergic acid conjugates; Arens et al, Planta Medica (1980); cited from earlier work
[7] = test system: Green Peach Aphid (Myzus persicae); test: Green peach aphid spray test on bell pepper plants; type: in vivo; conditions: 120 h, after 5 days, in comparison with untreated controls
Text: B.8 Green Peach Aphid (Myzus persicae)
as §3, with “are” for “were”, “acetone: 50%” for “acetone:50%”, “(Kinetic®) is” for “(Kinetic( ) was”
Bell pepper plants at the first true-leaf stage are infested prior to treatment by placing heavily infested leaves from the main colony on top of the treatment plants. Aphids are allowed to transfer overnight to accomplish an infestation of 30-50 aphids per plant and the host leaves are removed. The infested plants are then sprayed by an automated electrostatic plant sprayer equipped with an atomizing spray nozzle. The plants are dried in the sprayer fume hood, removed, and then maintained in a growth room under fluorescent lighting in a 24-hr photoperiod at about 25° C. and about 20-40% relative humidity. Aphid mortality on the treated plants, relative to mortality on untreated control plants, is determined after 5 days.

[8] = test system: Rice Green Leafhopper (Nephotettix virescens); test: Rice green leafhopper test on sprayed rice seedlings; type: in vivo; conditions: spray, after 72 hours, in comparison with untreated controls
Protocol: B.9 Rice Green Leafhopper (Nephotettix virescens)
Rice seedlings are cleaned and washed 24 hours before spraying. The active compounds are formulated in 50:50 acetone:water (vol:vol), and 0.1% vol/vol surfactant (EL 620) is added. Potted rice seedlings are sprayed with 5 ml test solution, air dried, placed in cages and inoculated with 10 adults. Treated rice plants are kept at about 28-29° C. and relative humidity of about 50-60%. Percent mortality is recorded after 72 hours.

[9] = test system: Vetch Aphid (Megoura viciae); test: Vetch aphid leaf disk microtiter plate test; type: in vivo; conditions: foliar, 120 h, leaf disks sprayed, 5 days, in comparison with untreated controls
Protocol: B.7 Vetch Aphid (Megoura viciae)
For evaluating control of vetch aphid (Megoura viciae) through contact or systemic means the test unit consisted of 24-well-microtiter plates containing broad bean leaf disks.
The compounds were formulated using a solution containing 75% v/v water and 25% v/v DMSO. Different concentrations of formulated compounds were sprayed onto the leaf disks at 2.5 μl, using a custom built micro atomizer, at two replications.
After application, the leaf disks were air-dried and 5-8 adult aphids placed on the leaf disks inside the microtiter plate wells. The aphids were then allowed to suck on the treated leaf disks and incubated at about 23±1° C. and about 50±5% relative humidity for 5 days. Aphid mortality and fecundity was then visually assessed.

[10] = test system: yellowfever mosquito larvae (Aedes aegypti); test: Larval mosquito water treatment assay; conditions: 120 h
[11] = test system: Cotton Aphid (Aphis gossypi); test: Cotton aphid spray test on infested cotton plants; type: in vivo; conditions: 120 h, after 5 days, in comparison with untreated controls
Text: B.1 Cotton Aphid (Aphis gossypi)
as §3, with “acetone: 50%” for “acetone:50%”, “(Kinetic®)” for “(Kinetic( )”
Cotton plants at the cotyledon stage were infested with aphids prior to treatment by placing a heavily infested leaf from the main aphid colony on top of each cotyledon. Aphids were allowed to transfer overnight to accomplish an infestation of 80-100 aphids per plant and the host leaf was removed. The infested plants were then sprayed by an automated electrostatic plant sprayer equipped with an atomizing spray nozzle. The plants were dried in the sprayer fume hood, removed from the sprayer, and then maintained in a growth room under fluorescent lighting in a 24-hr photoperiod at 25° C. and 20-40% relative humidity. Aphid mortality on the treated plants, relative to mortality on untreated control plants, was determined after 5 days.

[12] = test system: Cowpea Aphid (aphis craccivora); test: Cowpea aphid spray test on potted cowpea plants; type: in vivo; conditions: assessed after 24, 72 and 120 hours, in comparison with untreated controls
Protocol: as §1, §2
B.2 Cowpea Aphid (aphis craccivora)
Potted cowpea plants colonized with approximately 100-150 aphids of various stages were sprayed after the pest population has been recorded. Population reduction was assessed after 24, 72, and 120 hours.

| Compound | mortality [1] | mortality [2] | mortality [3] | mortality [4] | mortality at 300 ppm [5] [%] | cross reaction activity [6] | mortality at 300 ppm [7] [%] | mortality at 300 ppm [8] [%] | mortality at 2500 ppm [9] [%] | mortality at 10 ppm [10] [%] | mortality at 300 ppm [11] [%] | mortality at 300 ppm [12] [%] |
| --- | --- | --- | --- | --- | --- | --- | --- | --- | --- | --- | --- | --- |
| N-methylcarbamoyl-(1aR,3aR,9bR)-1a,2,3,3a,4,6-hexahydro-1a,3-dimethyl-1H-cycloprop[c]indolo[4,3-ef]indole [compound 1-2] | at least 75% | at least 75% | at least 75% | at least 75% |  |  |  |  |  |  |  |  |
| CN1CC2(C)CC23c2cccc4[nH]cc(c24)CC13 (stereo not drawn) [compound 1-1, cycloclavin] |  |  |  |  | ≥ 75 | did not show cross reaction activity | ≥ 75 | ≥ 75 | ≥ 75 | ≥ 60 | ≥ 75 | ≥ 75 |
